Laboratory results published in patent US10668039B2, “Methods for treatment of adenoid cystic carcinoma” (THE CHILDREN'S MEDICAL CENTER CORPORATION, priority 2016, dated 2020).

What was measured:
c-myb:GFP = c-myb:GFP zebrafish blastomere embryo culture chemical screen; type: cell-based; settings: approximately 30 μM, 2 days
Procedure: The inventors have developed an embryo culture system in which embryos bearing a c-myb:GFP transgenic reporter were dissociated during sphere stage at 4 hours post fertilization (hpf), and cultured in gelatin-coated 384 well plates with chemicals for 2 days until imaging for fluorescent reporter activity (FIG. 1). This fluorescent transgene is expressed in a similar pattern to the endogenous gene. […] This transgene responds to inducers of hematopoiesis, as myb is a marker of hematopoietic stem cells (HSCs).
The image analysis software (ImageJ and MatLab) was used to identify hits that downregulate c-myb:GFP zebrafish embryo cultures by a z-score less than […] and more than 70% downregulation. Hits were assessed by eye and scored for morphology. Toxic compounds that caused poor embryoid body (EB) formation were assessed a 4.
Zebrafish cell culture: Zebrafish embryo cultures were adapted from Xu (2013). Dissociated blastomere cells were grown in medium composed of 85% LDF medium, 5% heat inactivated FBS, and 10% zebrafish day 1 embryo extract. LDF medium contains 50% Leibowitz's L-15 (Invitrogen), 20% DMEM (Invitrogen), and 30% DMEM/F-12 (Invitrogen), supplemented with 0.018% sodium bicarbonate, 15 mM HEPES (Invitrogen), 1% L-Glutamine (Invitrogen), 10 nM sodium selenite (Sigma-Aldrich), 1% N2 (Invitrogen), 2% B27 (Invitrogen), 1% Penicillin-Streptomycin (Invitrogen), and 0.2% Primocin (InvivoGen).
Screening procedures: Two 384-well plates were coated with 0.1% gelatin for each chemical library plate. Males of the c-myb:GFP transgenic line were set up overnight with casper females and kept separated until morning when they were mixed for mating. Embryos were washed twice with E3 embryo water and treated with pronase to remove chorions. Dechorionated embryos were washed with E3 embryo water and collected into tubes containing media. Embryos were disassociated by shaking ˜10 times and were filtered through a 40 μm nylon mesh filter. Resulting single cells were diluted with medium and aliquoted 30 μl per well into the 384-well plates at approximately 2 embryo equivalents per well. Chemicals were dispensed immediately afterwards with an Agilent Bravo robot. Chemicals from the libraries were diluted 300 times with LDF medium and were aliquoted 10 μl per well for a final concentration of approximately 33 μM. […] Cells were cultured in a 28° C. incubator with 5% CO2. Two days later, cells were imaged by a Yokogawa Cell Voyager 7000 imager. Images were analyzed by ImageJ and MatLab and confirmed by eye. […]
Culture of dissociated blastomere cells: Stage-matched zebrafish blastomeres were dissociated at 4 hpf and grown in medium composed of 85% LDF medium, 5% FBS, and 10% embryo extract. LDF medium contains 50% Leibowitz's L-15 (Invitrogen), 20% DMEM (Invitrogen), and 30% DMEM/F-12 (Invitrogen), supplemented with 2% B27 (Gibco), 15 mM HEPES (Gibco), 1% L-glutamine (Gibco), 1% N2 (Gibco), 10 nM sodium selenite (Sigma), 100 ug/mL piperacillin (Sigma), 10 ug/mL ciprofloxacin (GenHunter), and 0.018% sodium bicarbonate (Gibco). Embryo extract was made by homogenizing 24 hpf wildtype AB embryos in HBSS (Gibco).

ACCx9 = test: ACC xenotransplantation trial, ACCx9; type: in vivo, nude mice; settings: oral 0.2 mL flat dose: ATRA 3 mg/mL, isotretinoin 30 mg/mL, fenretinide 40 mg/mL
Procedure: Xenograft experiments: To generate ACC xenografts, 1×10^6 viable ACC cells were injected into the flank of female nude (Foxn1nu) mice for in vivo drug testing of ACCx6, ACCx9, and ACCx11 lines. Once tumors were visible, the mice were randomized to receive vehicle control or drug until reaching a […] tumor volume of 1,000 mm3. The mice in each group were treated with an oral flat dose five times weekly (po qdx5) for four cycles (two days off between cycles). The exact dosing was determined based on an initial MTD tolerability study and published literature reports. Five mice per group were treated for ACCx6 and ACCx9, and four mice per group were treated for ACCx11 (five mice in the control ACCx11 group), and the tumor volumes were quantified. Mice were treated with a flat dose of 0.2 mL orally of: 30 mg/mL isotretinoin; 40 mg/mL fenretinide; 4 mg/mL ATRA for ACCx6 and ACCx11 or 3 mg/mL ATRA for ACCx9. Mouse procedures used in this study were approved by the IACUC at South Texas Accelerated Research Therapeutics (San Antonio, Tex.).
Primagraft experiments: For in vivo drug testing, ACC tumor fragments from host animals were implanted subcutaneously into the flank of nude mice (CRL: ATH/NU). Once tumors reached 125-250 mm3, mice were randomized to receive vehicle or drug diluted in 10:90 DMSO:10% hydroxypropyl-beta-cyclodextrin orally until controls reached a tumor volume endpoint of 1-2 cm3 (4-9 mice per group: x5M1 and x6, 4 treated vs. 9 vehicle controls; x9, 4 treated vs. 5 vehicle controls; x11, 5 treated vs. 8 vehicle controls). Mice were treated with ATRA (ACC x6 and x11: 4 mg/mL, 0.2 mL flat dose; ACC×9: 3 mg/mL, 0.2 mL flat dose) or isotretinoin (30 mg/mL, 0.2 mL flat dose). Tumor growth was monitored and mice weighed twice weekly and studies ended when final group reached tumor volume endpoint. No statistical methods were employed to determine the sample size, and no blinding of investigators was performed. […]

[1] = Table 2, c-myb:GFP embryo cultures, average across two plates
[2] = Table 3, GFP signal in blastomere embryo culture screen

Row | Structure (SMILES) | Z-Score (c-myb:GFP; [1]) | Z-Score (c-myb:GFP; [2]) | tumor growth inhibition ACCx9 (ACCx9) [%]
1 | CC(C=CC1=C(C)CCCC1(C)C)=CC=C/C(C)=C/C(=O)O [ATRA, (E)-3,7-dimethyl-9-(2,6,6-trimethyl-1-cyclo-hexen-1-yl)-2,4,6,8-nonatetraenoic acid] | −5.729 | −5.729 | 78
2 | CC1=C(/C=C/C(C)=C/C=C/C(C)=C/C(=O)Nc2ccc(O)cc2)C(C)(C)CCC1 [Fenretinide, retinoic acid p-hydroxyanilide] | −1.582 | −1.582 | 57
3 | CC1=C(/C=C/C(C)=C/C=C/C(C)=C\C(=O)O)C(C)(C)CCC1 [Isotretinoin, 13-cis-retinoic acid] | −5.054 | −5.054 | 95
